In the CheMixHub viscosity set:
± gives the uncertainty stated by the source.

Experiment: xn = mol fraction of the nth substance listed

N#Cc1ccccc1 + CC(C)(C)O
viscosity [mPa·s], 101.33 kPa
Settings | x1 = 0.0567 | x1 = 0.1542 | x1 = 0.2837 | x1 = 0.3997 | x1 = 0.4923 | x1 = 0.5993 | x1 = 0.7289 | x1 = 0.8283 | x1 = 0.8923
303.15 K | 2.895 ± 0.12 | 2.017 ± 0.11 | 1.578 ± 0.056 | 1.365 ± 0.035 | 1.262 ± 0.031 | 1.203 ± 0.025 | 1.142 ± 0.024 | 1.121 ± 0.021 | 1.114 ± 0.022
308.15 K | 2.311 ± 0.11 | 1.696 ± 0.061 | 1.368 ± 0.041 | 1.223 ± 0.031 | 1.137 ± 0.026 | 1.094 ± 0.023 | 1.043 ± 0.019 | 1.034 ± 0.019 | 1.028 ± 0.019
313.15 K | 1.811 ± 0.1 | 1.429 ± 0.04 | 1.187 ± 0.031 | 1.072 ± 0.029 | 1.021 ± 0.023 | 1.001 ± 0.021 | 0.98 ± 0.016 | 0.962 ± 0.017 | 0.951 ± 0.015

C[C@H]1CCCC[C@H]1O + C[C@@H]1CCCC[C@H]1O
viscosity [mPa·s], 101 kPa
Settings | x1 = 0.199 | x1 = 0.302 | x1 = 0.399 | x1 = 0.598 | x1 = 0.691 | x1 = 0.798
298.15 K | 29.88 ± 0.39 | 27.1 ± 0.35 | 24.51 ± 0.32 | 20.97 ± 0.27 | 19.75 ± 0.25 | 18.87 ± 0.24
303.15 K | 20.72 ± 0.3 | 19.03 ± 0.27 | 17.37 ± 0.24 | 15.25 ± 0.21 | 14.51 ± 0.2 | 13.97 ± 0.19

CCOCCOCCOCCO + ClC=C(Cl)Cl
298.15 K, 101.33 kPa
Settings | viscosity [mPa·s]
x1 = 0.0053 | 0.54 ± 0.006
x1 = 0.0167 | 0.565 ± 0.006
x1 = 0.026 | 0.587 ± 0.006
x1 = 0.0395 | 0.618 ± 0.006
x1 = 0.0528 | 0.651 ± 0.007
x1 = 0.0728 | 0.707 ± 0.007
x1 = 0.1054 | 0.809 ± 0.008
x1 = 0.1458 | 0.947 ± 0.009
x1 = 0.1858 | 1.103 ± 0.011
x1 = 0.2345 | 1.326 ± 0.013
x1 = 0.2866 | 1.587 ± 0.016
x1 = 0.3318 | 1.832 ± 0.018
x1 = 0.3679 | 2.048 ± 0.02
x1 = 0.4108 | 2.323 ± 0.023
x1 = 0.447 | 2.559 ± 0.026
x1 = 0.4818 | 2.796 ± 0.028
x1 = 0.523 | 3.087 ± 0.032
x1 = 0.5639 | 3.396 ± 0.035
x1 = 0.6278 | 3.88 ± 0.041
x1 = 0.6904 | 4.378 ± 0.046
x1 = 0.7278 | 4.683 ± 0.05
x1 = 0.7721 | 5.051 ± 0.055
x1 = 0.8271 | 5.521 ± 0.06
x1 = 0.8733 | 5.952 ± 0.065
x1 = 0.9136 | 6.273 ± 0.069
x1 = 0.9317 | 6.46 ± 0.072
x1 = 0.9672 | 6.773 ± 0.076
x2 = 0.0194 | 6.891 ± 0.077

CCC(=O)OC + CCCCCCC
viscosity [mPa·s], 101.3 kPa
Settings | 308.15 K | 318.15 K
x1 = 0.0447 | 0.354 ± 0.004 | 0.322 ± 0.003
x1 = 0.1083 | 0.355 ± 0.004 | 0.326 ± 0.003
x1 = 0.1932 | 0.358 ± 0.004 | 0.332 ± 0.003
x1 = 0.3018 | 0.362 ± 0.004 | 0.34 ± 0.003
x1 = 0.4146 | 0.369 ± 0.004 | 0.349 ± 0.004
x1 = 0.5227 | 0.377 ± 0.004 | 0.359 ± 0.004
x1 = 0.5693 | 0.381 ± 0.004 | 0.363 ± 0.004
x1 = 0.7002 | 0.395 ± 0.004 | 0.377 ± 0.004
x1 = 0.7986 | 0.407 ± 0.004 | 0.389 ± 0.004
x1 = 0.9016 | 0.421 ± 0.004 | 0.402 ± 0.004
x1 = 0.9509 | 0.429 ± 0.004 | 0.409 ± 0.004

N#Cc1ccccc1 + CCO
viscosity [mPa·s], 101.33 kPa
Settings | x1 = 0.1051 | x1 = 0.2045 | x1 = 0.3213 | x1 = 0.4131 | x1 = 0.4921 | x1 = 0.6214 | x1 = 0.6673 | x1 = 0.769 | x1 = 0.9218
303.15 K | 0.923 ± 0.028 | 0.891 ± 0.027 | 0.897 ± 0.023 | 0.901 ± 0.022 | 0.912 ± 0.02 | 0.938 ± 0.02 | 0.963 ± 0.019 | 1.006 ± 0.019 | 1.075 ± 0.02
308.15 K | 0.846 ± 0.025 | 0.817 ± 0.023 | 0.826 ± 0.022 | 0.834 ± 0.02 | 0.849 ± 0.019 | 0.873 ± 0.018 | 0.893 ± 0.019 | 0.935 ± 0.018 | 1.005 ± 0.017
313.15 K | 0.775 ± 0.023 | 0.75 ± 0.02 | 0.762 ± 0.02 | 0.772 ± 0.019 | 0.785 ± 0.018 | 0.813 ± 0.017 | 0.828 ± 0.017 | 0.87 ± 0.017 | 0.939 ± 0.015
